Experimental data: PMC9562188, “Characterization of the Aquaporin-9 Inhibitor RG100204 In Vitro and in db/db Mice” (Cells, 2022)

Target: T1, Aquaporin-9 (AQP9) (Homo sapiens, UniProt O43315)
T1 construct: 10×His-hAQP9 (N-terminal 10-histidine tag), purified from P. pastoris, reconstituted in proteoliposomes
T1 sequence (O43315 1-295): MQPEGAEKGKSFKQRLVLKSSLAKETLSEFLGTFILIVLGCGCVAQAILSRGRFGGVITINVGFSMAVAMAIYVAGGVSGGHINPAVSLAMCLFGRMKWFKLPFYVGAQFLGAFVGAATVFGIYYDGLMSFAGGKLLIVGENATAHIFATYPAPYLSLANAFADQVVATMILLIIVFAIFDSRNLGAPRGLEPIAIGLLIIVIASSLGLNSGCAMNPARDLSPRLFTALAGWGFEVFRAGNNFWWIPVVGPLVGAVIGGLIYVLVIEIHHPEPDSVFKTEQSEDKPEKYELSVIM
Assay: stopped-flow light scattering of purified AQP9 proteoliposomes ([…], −[…] Pgly); IC50 (water permeability; glycerol […]) from calcein quenching in human AQP9-expressing CHO cells
Assay type: cell-based

Which IC50 does the source give for `O=C(CCc1ccc(O)cc1)c1c(O)cc(O)cc1O` [phlor, phloretin] here?
Its IC50 is ~200 nM.
